From patent US20200289482A1, “CYSTIC FIBROSIS TRANSMEMBRANE CONDUCTANCE REGULATOR MODULATORS FOR TREATING AUTOSOMAL DOMINANT POLYCYSTIC KIDNEY DISEASE” (The Johns Hopkins University, priority 2017, published 2020)

How the values were obtained:
Hsp40 = assay: Western blot of Hsp40 in kidney tissue lysates; assay type: in vivo, mouse; details: cyst induced pkd−/− mice, VX-809 30 mg/kg BW
Experimental: FIG. 7A, FIG. 7B, FIG. 7C, FIG. 7D, FIG. 7E, and FIG. 7F show chaperone expression is altered in mice by VX-809. (FIG. 7A-FIG. 7B) Representative Western blot images of HSP27, 70, 90 and HSP40 in lysates of kidney tissue from no cyst induced (ND), cyst induced with Doxycycline (D) or cyst induced pkd−/− mice treated with VX-809 (D+VX-809) 30 mg/kg BW. (FIG. 7C, FIG. 7D, FIG. 7E, and FIG. 7F) Columns represent averages±standard errors of HSP27, 70, 90 and HSP40 expression. Data were analyzed by non-parametric t-test. n=4 for each treated and control groups. Black lines between lanes represent representative experiments from the same gel. *P<0.05; **P<0.01; To facilitate their growth in the kidney, cysts have developed an altered network of proteins that most likely serves to protect them from stress (34). Next, it was determined whether VX-809 would alter the levels of Hsps in pkd−/− mice and in PN cells. […] Hsp 27, 70 and 90 are all elevated in cystic kidneys compared to normal controls. […] There is no change in Hsp 40. […] Both sets of data are consistent with an alteration in the heat shock response to cyst growth.

[1] = test system: caspase 3 activity in PN cells; assay: EnzChek Caspase-3 assay (apoptosis); assay type: cell-based, mouse; details: 16 h treatment
Experimental: Apoptosis was measured using the EnzChek Caspase-3 Assay Kit (Invitrogen # E13184). Cells were treated either with VX-809 or with DMSO at indicated concentrations for 16 h or left untreated (control). Both treated and control cells were then harvested, lysed, and assayed as described in the manufacturer's protocol. Reactions were carried out at room temperature, and fluorescence was measured in a fluorescence microplate reader (SpectraMax M3), with excitation at 496 nm and emission detection at 520 nm. Background fluorescence, determined for a no-enzyme control, has been subtracted from each value. Ac-DEVD-CHO was used as an inhibitor control (Inh-cntrl) to confirm the correlation between signal detection and caspase3-like protease activity. Data were analyzed using one-way and ANOVA multiple comparisons. n=4-5. ****P<0.0001;
Apoptosis is associated with the absence of PC1 in ADPKD (36). To assess whether apoptosis is directly altered by VX-809, caspase 3 activity was monitored in PN cells.

AC6 = assay: Western blot of adenylyl cyclase 6 expression; assay type: cell-based, mouse; details: PN cells treated with VX-809
Experimental: FIG. 4A, FIG. 4B, FIG. 4C, FIG. 4D, and FIG. 4E show (FIG. 4A-FIG. 4B) cAMP levels are reduced by VX-809. (FIG. 4A) cAMP levels in mouse tissue were reduced by VX-809. The kidney samples (n=6) analyzed were taken from those depicted in FIG. 1. (FIG. 4B) Confluent PN and PH cells were treated with VX-809 (10 μM) or DMSO for 16 h and then treated with forskolin (100 μM) for 30 min before the cells were harvested for the assay. Columns represent means±SEM. Statistical analysis was performed using a two-tailed Student's t-test. Each set of data is from three individual wells; Note that resting cAMP is greater in PN vs PH cells as previously shown (25). Also note that forskolin caused a large increase in cAMP. A smaller increase occurred with IBMX. However, the increase induced by forskolin alone was similar to that by IBMX plus forskolin. […] (FIG. 4C, FIG. 4D, and FIG. 4E) Adenylyl cyclase expression. (FIG. 4C) Western blot showing the expression of adenylyl cyclase (AC) 6 and AC3 in treated and control PN cells. (FIG. 4D-FIG. 4E) Columns represent means±SEM of the AC3 and AC6 expression. The data were analyzed by non-parametric t-test. The experiment was repeated four times. For all graphs, *P<0.05, **P<0.01, and ***P<0.001;
There are two classes of adenylyl cyclases that are regulated by intracellular Ca^2+: one class is activated, and the other inhibited. […]

[2] = test system: cAMP in PC1 conditional knockout mouse kidneys; assay: cAMP levels in mouse kidney tissue; assay type: in vivo; details: kidney samples from mice of FIG. 1 (VX-809 30 mg/kg)
Experimental: FIG. 4A, FIG. 4B, FIG. 4C, FIG. 4D, and FIG. 4E show (FIG. 4A-FIG. 4B) cAMP levels are reduced by VX-809. (FIG. 4A) cAMP levels in mouse tissue were reduced by VX-809. The kidney samples (n=6) analyzed were taken from those depicted in FIG. 1. (FIG. 4B) Confluent PN and PH cells were treated with VX-809 (10 μM) or DMSO for 16 h and then treated with forskolin (100 μM) for 30 min before the cells were harvested for the assay. Columns represent means±SEM. Statistical analysis was performed using a two-tailed Student's t-test. Each set of data is from three individual wells; Note that resting cAMP is greater in PN vs PH cells as previously shown (25). Also note that forskolin caused a large increase in cAMP. […] The data were analyzed by non-parametric t-test. […]
It has been shown previously in both animal and cell culture models of ADPKD that cells lacking functional PC1 have elevated cAMP levels when compared to normal (24). To assess the effect of CFTR correctors, cAMP activity was measured in PC1 conditional knockout mouse kidneys and in PN cells that were either left untreated or treated with VX-809. […]
Confluent cells were treated with VX-809 (10 μM) or DMSO for 16 h before being harvested for assay. Cyclic AMP levels were measured with a direct cAMP Enzyme Immunoassay Kit (Sigma, # CA200) according to the manufacturer's protocol. The results are expressed as pmole/ml. […]

GRP78 = assay: Western blot of ER stress marker GRP78 in kidney tissue; assay type: in vivo, mouse; details: cyst induced pkd−/− mice, VX-809 30 mg/kg BW
Experimental: FIG. 11A. FIG. 11B, FIG. 11C, FIG. 11D, and FIG. 11E show expression of ER stress markers GRP78, ErO1, and GADD in Pkd1^−/− mice treated with VX-809. (FIG. 11A & FIG. 11D) Representative Western blot images of GRP78, ErO1, and GADD in lysates of kidney tissue from no cyst induced (ND), cyst induced with doxycycline (D) or cyst induced pkd−/− mice treated with VX-809 (D+VX-809) 30 mg/kg BW. (FIG. 11B, FIG. 11C and FIG. 11E) Columns represent averages±standard errors of GRP78, ErO1, and GADD153 expression. Data were analyzed by non-parametric t-test. n=4 for each treated and control groups. Black lines between lanes represent representative experiments from the same gel but loaded in different lanes. **P<0.01, ***P<0.001;
Given that VX-809 alters an ensemble of Hsps, it was evaluated whether VX-809 alters proteins associated with ER stress. To address this question, the levels of three ER stress-associated proteins were measured, 78-kDa glucose-regulated protein (GRP78), ER oxidoreductin 1 (Ero1) and DNA damage-inducible protein 3 (GADD153), also known as C/EBP homologous protein (CHOP) (37). The results are depicted in FIG. 11 show no changes in GRP78 or Ero1 in response to VX-809.

lumacaftor [VX-809] was tested, and the “Hsp40 expression in kidneys” value (Hsp40) was “no change”, the “caspase 3 activity” value [1] was “small reduction in caspase 3 activity” and the “AC6 regulation (expression)” value (AC6) was “not AC6”. The “cAMP levels in mouse kidneys” value [2] was “significantly decreased the cAMP levels” and the GRP78 expression (GRP78) was “no changes”.
